Among the test systems are SN12C; HL-60; OVCAR-4; Malme-3M; COLO 205; IGROV-1; 786-0; HCC 2998; M14; K562; SNB-19; A549; SNB-75; MOLT-4; HT-29; EKVX; OVCAR-5; SF-539; UACC-62.
What all share (experiment): DTP human tumour cell line panel, 48 h

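Five concentrations, 48 hours, 96-well plates. The concentration for 50% growth inhibition is given as GI50.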 Calls of active or inactive are those of the source. No stated cut-off is given here; in the data, active = GI50 up to about 1.1 µM and inactive = higher. Some results are limits rather than exact numbers.

Regarding `O=C1NC(=O)C2C(=O)NC(=O)C1C2c1c(Cl)cccc1Cl` (stereo unspecified), the GI50 in the experiment on SN12C is > 83.6 µM (inactive); with HL-60, > 44.4 µM (inactive); in the experiment with OVCAR-4 it was > 100 µM (inactive); in the experiment with Malme-3M it was > 100 µM (inactive); in the experiment on COLO 205, > 41.8 µM (inactive); in the experiment with IGROV-1, > 100 µM (inactive). The GI50 in the experiment on 786-0 is > 61.8 µM (inactive); with HCC 2998, > 60.5 µM (inactive); with M14, > 100 µM (inactive); in the experiment on K562 it was > 49.4 µM (inactive); in the experiment with SNB-19, > 100 µM (inactive); in the experiment with A549 it was > 72.4 µM (inactive). Also, the GI50 with SNB-75 was > 63.5 µM (inactive); in the experiment with MOLT-4, > 100 µM (inactive); with HT-29, > 92.5 µM (inactive); in the experiment on EKVX it was > 100 µM (inactive); in the experiment on OVCAR-5, > 100 µM (inactive); with SF-539 it was > 88.3 µM (inactive). In addition, the GI50 with UACC-62 was > 100 µM (inactive).
Regarding `Cc1cccc(N2C(=O)C(=O)C(c3nc4ccccc4s3)C(=O)C2=O)c1C`, the GI50 in the experiment with SN12C was > 100 µM (inactive); in the experiment on HL-60 it was < 0.01 µM (active); in the experiment with OVCAR-4, > 100 µM (inactive); in the experiment on Malme-3M, > 100 µM (inactive); in the experiment with COLO 205, > 100 µM (inactive); in the experiment with IGROV-1, > 100 µM (inactive). Further, the GI50 in the experiment with 786-0, in the experiment with HCC 2998, in the experiment on M14, with K562, in the experiment on SNB-19 and in the experiment with A549 was > 100 µM (inactive) throughout. Further, the GI50 with SNB-75, in the experiment with MOLT-4, in the experiment with HT-29, in the experiment on EKVX, in the experiment on OVCAR-5 and with SF-539 was > 100 µM (inactive) in each case. In the experiment with UACC-62, the GI50 is > 100 µM (inactive).
Take `C/C(=N/NC(=S)Nc1cccc(Cl)c1)c1ccccn1`: the GI50 in the experiment with SN12C was 0.255 µM (active); in the experiment on HL-60 it was < 0.0141 µM (active); in the experiment on OVCAR-4 it was 1.05 µM (active); in the experiment with Malme-3M, 0.301 µM (active); in the experiment with COLO 205, 0.0372 µM (active); in the experiment with IGROV-1, 0.0395 µM (active). In addition, the concentration for 50% growth inhibition (GI50) was 0.562 µM (active) in the experiment with 786-0; 1.82 µM (inactive) with HCC 2998; 0.242 µM (active) in the experiment on M14; 0.0324 µM (active) in the experiment with K562; 2.5 µM (inactive) in the experiment with SNB-19; 0.802 µM (active) in the experiment on A549. The GI50 in the experiment on SNB-75 was 2.95 µM (inactive); in the experiment with MOLT-4 it was < 0.0156 µM (active); in the experiment on HT-29, 0.0488 µM (active); with EKVX, 0.0977 µM (active); in the experiment with OVCAR-5, 0.0474 µM (active); with SF-539 it was 0.593 µM (active). Besides, in the experiment on UACC-62, the GI50 is 0.202 µM (active).
With `Cc1c(C(=O)C/C(=N/NC(=O)c2ccccc2O)C(=O)Nc2ccccc2C(C)C)[n+]([O-])c2ccccc2[n+]1[O-]`, the GI50 was 43.8 µM (inactive) with SN12C; 3.01 µM (inactive) in the experiment on HL-60; 31.8 µM (inactive) in the experiment on OVCAR-4; 48.6 µM (inactive) in the experiment on Malme-3M; 31.7 µM (inactive) in the experiment with COLO 205; 28.3 µM (inactive) in the experiment with IGROV-1. Besides, the GI50 in the experiment with 786-0 was 49.7 µM (inactive); in the experiment with HCC 2998, 52.5 µM (inactive); with M14, 31 µM (inactive); with K562, 33.7 µM (inactive); in the experiment on SNB-19, > 100 µM (inactive); in the experiment on A549, 34.7 µM (inactive). The GI50 in the experiment on SNB-75 is > 100 µM (inactive); with MOLT-4, 3.2 µM (inactive); in the experiment with HT-29 it was 43.6 µM (inactive); in the experiment on EKVX, 47.4 µM (inactive); in the experiment with OVCAR-5, > 100 µM (inactive); in the experiment with SF-539, 40.6 µM (inactive). For the same compound, the GI50 in the experiment on UACC-62 is 20 µM (inactive).
In the case of `CC(C)=CCC/C(C)=C/COC(C)(C)C1=CCC(C)CC1.CC(C)=CCC/C(C)=C/COC1CC(C)CCC1=C(C)C` (stereo unspecified), the GI50 in the experiment with SN12C was > 100 µM (inactive); with HL-60 it was 22 µM (inactive); in the experiment on OVCAR-4, > 100 µM (inactive); in the experiment on Malme-3M, > 100 µM (inactive); in the experiment on COLO 205, > 100 µM (inactive); in the experiment on IGROV-1 it was > 100 µM (inactive). In addition, the GI50 with 786-0, in the experiment on HCC 2998, in the experiment with M14, in the experiment with SNB-19, in the experiment on A549 and with SNB-75 was > 100 µM (inactive) in each case. The GI50 with MOLT-4 is 18.2 µM (inactive); in the experiment on HT-29 it was > 100 µM (inactive); with EKVX, > 100 µM (inactive); in the experiment with OVCAR-5, > 100 µM (inactive); with SF-539 it was 6.07 µM (inactive); in the experiment with UACC-62, > 100 µM (inactive).
On to `CCCCCCCCCCC(=O)CCCCCCC(=O)O`, for which the GI50 with SN12C was 27.3 µM (inactive); in the experiment with HL-60, 4.23 µM (inactive); in the experiment on OVCAR-4 it was 45.6 µM (inactive); with Malme-3M, 20.8 µM (inactive); with COLO 205, 15.4 µM (inactive); with IGROV-1 it was 19.2 µM (inactive). Moreover, the GI50 is 18.8 µM (inactive) with 786-0; 17.1 µM (inactive) in the experiment with HCC 2998; 20.5 µM (inactive) with M14; 7.33 µM (inactive) in the experiment on K562; 42.1 µM (inactive) in the experiment with SNB-19; 15.3 µM (inactive) in the experiment on A549. Further, the GI50 was 29.6 µM (inactive) in the experiment on SNB-75; 15.1 µM (inactive) in the experiment on MOLT-4; 18.5 µM (inactive) with HT-29; 31.8 µM (inactive) with EKVX; 16.3 µM (inactive) in the experiment with OVCAR-5; 18.1 µM (inactive) in the experiment with SF-539. Further, the GI50 in the experiment with UACC-62 was 17.9 µM (inactive).
On to `COc1nc2c(c(=O)[nH]1)N=C(c1ccccc1)CC(c1ccccc1)N2` (stereo unspecified), for which the GI50 in the experiment on SN12C is 37 µM (inactive); in the experiment on HL-60, > 10 µM (inactive); with OVCAR-4 it was 26.9 µM (inactive); with Malme-3M, 72.9 µM (inactive); with COLO 205, > 100 µM (inactive); with IGROV-1 it was 61.4 µM (inactive). The GI50 is 37.7 µM (inactive) with 786-0; 54.5 µM (inactive) in the experiment on HCC 2998; 34.3 µM (inactive) with M14; 25.3 µM (inactive) in the experiment on K562; > 100 µM (inactive) in the experiment on SNB-19; 55.6 µM (inactive) with A549. Also, the GI50 in the experiment with SNB-75 was 15.3 µM (inactive); in the experiment on MOLT-4 it was 31.3 µM (inactive); in the experiment on HT-29 it was 44.7 µM (inactive); in the experiment on EKVX, 48.9 µM (inactive); with OVCAR-5, > 100 µM (inactive); in the experiment on SF-539, 48.1 µM (inactive). In addition, the GI50 with UACC-62 is 44.7 µM (inactive).
In the case of `Cc1c(/C=C2\CC/C(=C\c3[nH]c(C(=O)OC(C)(C)C)c(C)c3C)C2=O)[nH]c(C(=O)OC(C)(C)C)c1C`, the GI50 in the experiment with SN12C, in the experiment on HL-60, in the experiment with OVCAR-4, in the experiment with Malme-3M, in the experiment with COLO 205 and in the experiment on IGROV-1 was > 100 µM (inactive) throughout. Also, the GI50 in the experiment on 786-0, in the experiment with HCC 2998, in the experiment on M14, in the experiment on K562, in the experiment with SNB-19 and in the experiment with A549 was > 100 µM (inactive) throughout. For the same compound, the GI50 in the experiment with SNB-75 was 60.1 µM (inactive); in the experiment on MOLT-4 it was > 100 µM (inactive); with HT-29, > 100 µM (inactive); in the experiment on EKVX it was > 100 µM (inactive); with OVCAR-5, > 100 µM (inactive); in the experiment with SF-539, > 100 µM (inactive). The GI50 in the experiment with UACC-62 is > 100 µM (inactive).

These data come from ChEMBL document CHEMBL1201862, “PubChem BioAssay data set” (2004).
